Measurements taken from US11506670B2, “Method of genome-wide direct identification of electrophile-sensing targets” (Cornell University, priority 2018, dated 2022).

Legend:
PTEN = molecular target: T1, PTEN (Homo sapiens, UniProt P60484); assay: Immunofluorescence of endogenous PIP3 after PTEN-targeted T-REX; type: cell-based; details: T-REX HNEylation of Halo-PTEN
T1 construct: host or cells: HEK-293
Protocol: (i) Transient transfection using TransIT-2020. Split HEK-293 cells in four 35 mm glass-bottom dishes. For each dish, seeding ˜4×10^5 cells in 2.0 mL total cell culture medium should result in cells that are ˜40-50% confluent after 24 h, which represents optimal cell density. Too low and too high cell density may result in excessive cell death or poor transfection efficiency respectively. Higher cell density is also not optimal for imaging.
(ii) Transfect each plate with 2000 ng of Halo-PTEN plasmid. Transfect with TransIT-2020 following the manufacturer's protocol.
(iv) Treatment of cells with T-REX™ delivery photocaged precursor, photo-uncaging and cell fixing (TIMING: 8 hours). Treat the cells with photocaged precursor as described in Section 2, Step 39A.
(v) After shining light on the sample, incubate the plates at 37° C. for 10 hours. […]
(xviii) Images were analyzed using ImageJ software (NIH). Briefly, the average green fluorescence intensity (intensity of signal due to PIP3) for each cell was determined by drawing a free hand circle around the image. This was repeated for each condition such that 50-100 cells were analyzed each time from multiple different frames. A global average of the green fluorescence intensity was calculated for each condition, then these values were plotted and analyzed using prism. […]

[1] = test system: ten HaloTag proteins in HEK-293 cells; assay: T-REX gel-based screen of Halo ORF clones for HNE-sensitive targets; type: cell-based
Protocol: Individual wells in a 48-well plate contained live HEK-293 cells ectopically expressing a unique HaloTagged gene of interest. The cells were subjected to T-REX™ delivery-HNE(alkyne) targeting on demand. Post cell lysis, all samples were treated with TEV protease and subsequently subjected to Click coupling reaction with Cy5 azide. Probing with Halo antibody allowed evaluation of expression level (and/or solubility under the lysis conditions used). […] For example, RRM1, PRKCD, p53R2, and Keap1 (positive control) had roughly similar expression levels. Only RRM1 and Keap1 were HNE-sensitive although all four targets have been previously identified to be potentially redox/HNE-sensitive (Holmstrom et al., “Cellular Mechanisms and Physiological Consequences of Redox-Dependent Signalling,” Nat. Rev. Mol. Cell. Biol. 15:411-21 (2014); Jacobs et al., “Systems Analysis of Protein Modification and Cellular Responses Induced by Electrophile Stress,” Acc. Chem. Res. 43:673-83 (2010); Delmastro-Greenwood et al., “Redox-Dependent Anti-Inflammatory Signaling Actions of Unsaturated Fatty Acids,” Annu. Rev. Physiol. 76:79-105 (2014); Crunkhorn S., “Deal Watch: Abbott Boosts Investment in NRF2 Activators for Reducing Oxidative Stress,” Nat. Rev. Drug Discov. […]

T1 sequence (P60484 whole entry): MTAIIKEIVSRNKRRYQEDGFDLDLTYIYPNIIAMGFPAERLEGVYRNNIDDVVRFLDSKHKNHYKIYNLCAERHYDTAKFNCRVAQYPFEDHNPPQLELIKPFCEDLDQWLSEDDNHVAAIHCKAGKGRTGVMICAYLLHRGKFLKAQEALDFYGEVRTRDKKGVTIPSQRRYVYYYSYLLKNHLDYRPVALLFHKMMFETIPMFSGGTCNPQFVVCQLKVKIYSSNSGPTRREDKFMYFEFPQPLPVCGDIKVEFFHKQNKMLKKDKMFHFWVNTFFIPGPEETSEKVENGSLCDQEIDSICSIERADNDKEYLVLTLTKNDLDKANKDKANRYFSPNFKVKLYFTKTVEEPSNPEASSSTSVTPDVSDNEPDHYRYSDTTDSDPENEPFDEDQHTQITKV

With CCCCCC(O)/C=C/C=O (centres unmarked) [HNE, 4-hydroxynonenal] the “endogenous PIP3 level” value (PTEN) was “upregulation of PIP3” and the “proteins modified by HNE in the screen besides positive control Keap1” value [1] was “RRM1 and HSPB7”.
